Laboratory results: patent US10016439B2, “Fused imidazole compounds” (ONO PHARMACEUTICAL CO., LTD., priority 2014, dated 2018)

Legend:
Lister Hooded rat = assay: Rat Novel Object Recognition test; type: in vivo; conditions: 20 mg/kg p.o., 30 min prior to T1 and T2; 24 hr delay
From the text: NOR (Novel Object Recognition test) is a two-trial spontaneous test of visual recognition memory that relies on the animal's natural tendency to explore novelty (Behav Brain Res, 1998, 31(1): pp. 47-59). Variation of the inter-trial interval (ITI) between acquisition (T1) and retention trials (T2) may be used to investigate either deficits or improvements in memory. A temporal performance deficit can be induced by increasing the ITI (approximately 24 hr), such that exploration of both objects in T2 is similar, enabling the pro-cognitive abilities of novel compounds to be evaluated.
Male, Lister Hooded rat (228-273 g at start of study; Harlan UK) was used.
Habituation to the grey, matt perspex NOR box twice a day, on two consecutive days, prior to testing. Each habituation session, consisted of a 3 min exposure to the empty test box (46×30×45 cm), followed by 1 min in the side annex (13×30×45 cm), and then a further 3 min in the test area. […]
Experimental protocol tests for improvement in attention/recognition memory via reversal of a 24 h delay-induced deficit in NOR. […] All performance measures were determined for each individual animal before statistical handling.
The T1 score, d1 and d2 index were analysed using 2-way ANOVA (treatment×object) followed by planned comparisons post-hoc LSD using single measure parametric analysis, based on least square (predicted) means in InVivoStat, UK.

GABAA α5/β3/γ2 [1] = molecular target: T1, GABAA α5/β3/γ2 (Homo sapiens (Human), UniProt P18507+P31644); assay: Binding assay (Scintillation Proximity Assay, [3H]-Ro15-1788); conditions: membranes of HEK293 cells expressing GABAA α5/β3/γ2
T1 sequence (P31644 32-462): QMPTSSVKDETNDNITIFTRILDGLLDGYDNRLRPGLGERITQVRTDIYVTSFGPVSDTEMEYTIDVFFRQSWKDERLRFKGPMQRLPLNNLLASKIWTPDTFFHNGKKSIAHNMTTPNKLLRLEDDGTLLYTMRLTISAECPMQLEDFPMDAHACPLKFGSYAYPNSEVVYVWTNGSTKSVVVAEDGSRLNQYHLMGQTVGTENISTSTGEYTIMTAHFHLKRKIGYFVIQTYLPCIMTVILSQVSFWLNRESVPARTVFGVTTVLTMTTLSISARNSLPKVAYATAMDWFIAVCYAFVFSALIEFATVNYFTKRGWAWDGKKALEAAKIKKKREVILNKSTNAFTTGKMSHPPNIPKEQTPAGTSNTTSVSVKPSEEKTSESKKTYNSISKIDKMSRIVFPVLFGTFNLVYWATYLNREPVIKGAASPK
T1 sequence (P28472 26-473 partner): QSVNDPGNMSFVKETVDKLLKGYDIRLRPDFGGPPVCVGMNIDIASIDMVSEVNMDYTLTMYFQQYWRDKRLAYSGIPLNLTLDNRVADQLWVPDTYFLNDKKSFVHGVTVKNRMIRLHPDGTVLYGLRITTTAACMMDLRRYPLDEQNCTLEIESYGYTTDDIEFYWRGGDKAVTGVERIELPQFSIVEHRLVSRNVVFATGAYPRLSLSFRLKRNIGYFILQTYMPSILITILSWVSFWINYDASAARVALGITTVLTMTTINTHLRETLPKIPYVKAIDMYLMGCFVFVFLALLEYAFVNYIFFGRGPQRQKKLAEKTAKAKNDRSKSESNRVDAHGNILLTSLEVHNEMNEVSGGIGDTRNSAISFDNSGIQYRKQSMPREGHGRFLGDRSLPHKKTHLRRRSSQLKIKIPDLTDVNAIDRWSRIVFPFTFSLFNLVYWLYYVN
T1 sequence (P18507 40-475): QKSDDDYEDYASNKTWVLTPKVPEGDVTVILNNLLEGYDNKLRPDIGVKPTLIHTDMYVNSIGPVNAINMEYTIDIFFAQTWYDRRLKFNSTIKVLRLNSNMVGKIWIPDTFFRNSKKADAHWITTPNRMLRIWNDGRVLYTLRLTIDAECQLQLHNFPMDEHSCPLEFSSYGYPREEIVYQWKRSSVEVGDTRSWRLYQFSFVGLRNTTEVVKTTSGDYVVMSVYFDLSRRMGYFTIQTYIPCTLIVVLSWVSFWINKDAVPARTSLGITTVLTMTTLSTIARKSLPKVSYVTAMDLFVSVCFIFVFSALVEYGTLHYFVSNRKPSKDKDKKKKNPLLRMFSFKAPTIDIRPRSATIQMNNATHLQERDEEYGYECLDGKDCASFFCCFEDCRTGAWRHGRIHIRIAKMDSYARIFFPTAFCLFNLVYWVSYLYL
Description: The GABAAα5/β3/γ2 protein used for the Scintillation Proximity Assay was derived from membranes produced from HEK293 GABAA α5/β3/γ2 expressing HEK293 cell line. HEK293 GABAA α5/β3/γ2 expressing HEK293 cell line was cultured, then harvested and centrifuged the cells. Membranes were produced by homogenization of the cell pellet with a tissue homogenizer. The resulting homogenate was centrifuged at 48,000 g for 30 minutes, re-suspended and washed twice with 10 mM potassium phosphate buffer, pH 7.4. Final resuspension of membranes took place in buffer containing 10 mM potassium phosphate and 100 mM KCl.
For assay, test compound (50×) was added 0.5 μl per well to a white-walled clear-bottomed 384-well plate.
Full signal controls were prepared by the addition of 0.5 μl of DMSO to the appropriate wells. Mixture of 10 μl of protein and 10 μl of PVT-WGA beads (0.2 mg/well) were added to the plate. Both protein and bead were diluted to the desired concentration with 10 mM potassium phosphate, pH 7.4, containing 100 mM KCl. The plate was pre-incubated for 30 minutes at room temperature with shaking before initiation of the reaction by the addition of radioligand. 5 μl of [^3H]-Ro15-1788 was added at a concentration of 30 nM (5×) and the plates sealed. The reaction mix was incubated at room temperature overnight with gentle agitation on a plate shaker. The final DMSO concentration for all phases of the screening was 2% (v/v). At the end of the overnight incubation, the plates were centrifuged for two minutes at 1,000 rpm prior to reading on a Perkin Elmer Microbeta.
Concentration-response testing was performed in duplicate and the percent effect calculated for each replicate data point. The raw data was entered in Activity Base and the curves were fitted to the mean data using Excel and XL Fit, and shown as Ki.

GABAA α1/β3/γ2 = GABAA α1/β3/γ2 (Homo sapiens (Human), UniProt P14867+P18507); assay: Functional assay (PatchXpress automated patch-clamp), α1 subtype; type: cell-based; conditions: % change of GABA EC20 response; compound 1 μM; HEK293 cells
Chain of GABAA α1/β3/γ2 (P14867 28-456): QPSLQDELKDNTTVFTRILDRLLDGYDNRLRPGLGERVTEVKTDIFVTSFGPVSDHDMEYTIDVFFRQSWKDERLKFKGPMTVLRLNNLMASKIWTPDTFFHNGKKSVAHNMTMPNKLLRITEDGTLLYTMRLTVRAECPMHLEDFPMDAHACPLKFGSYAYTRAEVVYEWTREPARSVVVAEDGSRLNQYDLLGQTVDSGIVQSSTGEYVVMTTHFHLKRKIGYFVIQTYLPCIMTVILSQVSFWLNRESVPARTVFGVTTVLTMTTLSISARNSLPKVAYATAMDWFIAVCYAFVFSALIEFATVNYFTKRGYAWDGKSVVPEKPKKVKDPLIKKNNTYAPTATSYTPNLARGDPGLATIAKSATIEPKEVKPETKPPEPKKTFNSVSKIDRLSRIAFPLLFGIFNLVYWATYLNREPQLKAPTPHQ
Chain of GABAA α1/β3/γ2 (P28472 26-473 partner): as the sequence (P28472 26-473 partner) above
Chain of GABAA α1/β3/γ2 (P18507 40-475): as the sequence (P18507 40-475) above
From the text: (§1) GABAA α5/β3/γ2 HEK293 cell line was used throughout the functional assay in PatchXpress (Molecular Devices), the automated patch-clamp system. Cells stably expressing the appropriate GABAA subtype (α5/β3/γ2, α1/β3/γ2, α2/β3/γ2 or α3/β3/γ2) were dissociated from poly-D-lysine treated tissue culture flasks using a mixture of one part TrypLE (Invitrogen, cat #12604): one part Dulbecco's Phosphate Buffered Saline (Invitrogen, cat #14190). The dissociated cells were re-suspended in growth media (D-MEM/F-12 media (Invitrogen, cat #11320) supplemented with 10% (v/v) Foetal Bovine Serum (Invitrogen, cat #10082) and 1% (v/v) non-essential amino acids (Invitrogen, cat #11140)) and allowed to recover for one hour at 37° C. in a humidified incubator with 5% CO2. At the end of the recovery period cells were centrifuged at 1,000 rpm for two minutes and the resulting pellet re-suspended in external solution (in mM; 137 NaCl, 4 KCl, 10 HEPES, 1.8 CaCl2, 1 MgCl2, 10 glucose, pH set to 7.35 with NaOH). Cells were counted and diluted to 2.5×10^6/ml in external solution. The patch-clamp assay protocol involved determination of current amplitude with control applications of GABA EC20 containing concentration-matched DMSO (0.3% v/v), then pre-incubation of the test compound for one minute prior to the addition of the same compound diluted with the GABA EC20. Compound and/or GABA was applied for five seconds, with two minute wash periods between applications. No wash period was present at the end of the compound pre-application stage. The internal solution comprised (in mM) 90 KCl, 50 KF, 11 EGTA, 10 HEPES, 1 MgCl2, 2 Mg-ATP, the pH was set to 7.35 with KOH and the holding potential was −60 mV. Compounds were assayed at a concentration of 1 μM.

GABAA α5/β3/γ2 [2] = molecular target: T1, GABAA α5/β3/γ2; assay: Functional assay (PatchXpress automated patch-clamp), α5 subtype; type: cell-based; conditions: % change of GABA EC20 response; compound 1 μM; HEK293 cells
From the text: as §1

Ki (GABAA α5/β3/γ2 [1]): 0.9 nM
inhibition at 1 µM (GABAA α1/β3/γ2): 9.8%
inhibition at 1 µM (GABAA α5/β3/γ2 [2]): 42.5%
SMILES: Cc1cc(Nc2cc3c(cc2Cl)N(C)C(=O)CO3)nc2c1ncn2CC1CC1 [Example 160, 6-Chloro-7-((3-(cyclopropylmethyl)-7-methyl-3H-imidazo[4,5-b]pyridin-5-yl)amino)-4-methyl-2H-benzo[b][1,4]oxazin-3(4H)-one]
d2 index score (performance in NOR) (Lister Hooded rat): significantly improved performance
